Some test systems named below: ACHN renal; COLO 205 colon; HL-60(TB) leukemia; K-562 leukemia; KM20L2 colon; OVCAR-8 ovarian; SF-268 CNS; SNB-78 CNS; T-47D breast; RPMI-8226 leukemia.
Assay in all cases: DTP human tumour cell line panel, 48 h

By GI50 is commonly meant the concentration at which growth is held to half of that of the control. What is called TGI is the concentration giving total growth inhibition. A lower TGI goes with greater sensitivity of the cells.

Several values for one entry are separate records, joined by “and”; a condition that tells them apart may be missing. Equal entries are not always repeated.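 Cells were grown in 96-well plates and exposed to each compound for 48 hours at five concentrations; endpoints were interpolated linearly between bracketing concentrations, or set to the highest concentration if not reached. GI50 is the concentration that inhibits growth by half. TGI is the concentration that stops growth completely.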

`COc1ccc2[nH]c3c(C)c4cc[n+](C)cc4c(C)c3c2c1`: the GI50 in the experiment with ACHN renal was 4.04 µM; with HL-60(TB) leukemia it was 8.31 µM and 9.67 µM; in the experiment with K-562 leukemia it was 2 µM [middle of 4 runs]; in the experiment on KM20L2 colon it was 1.68 µM and 1.35 µM; in the experiment on OVCAR-8 ovarian, 0.0892 µM and 0.134 µM; with SF-268 CNS, 0.0504 µM and 0.0385 µM. In addition, the 50% growth inhibitory concentration (GI50) with SNB-78 CNS is 0.478 µM and 0.243 µM; in the experiment with T-47D breast, 0.88 µM and 0.257 µM and 1.03 µM. Besides, the TGI with ACHN renal was above 85.3 µM; in the experiment with COLO 205 colon it was 7.97 µM and 4.89 µM and 3.58 µM; in the experiment with KM20L2 colon, 34.2 µM [middle of 4 runs]; with T-47D breast, 12.6 µM and 3.63 µM and 11.2 µM.
As to `CN(C)CCNC(=O)c1cccc2cc([N+](=O)[O-])ccc12`, the GI50 is 0.384 µM and 0.127 µM in the experiment with ACHN renal; 0.893 µM and 0.217 µM with COLO 205 colon; 0.608 µM and 0.175 µM in the experiment with HL-60(TB) leukemia; 0.579 µM and 0.123 µM in the experiment on K-562 leukemia; 0.605 µM and 0.157 µM in the experiment on OVCAR-8 ovarian; 1.87 µM and 0.22 µM in the experiment on SF-268 CNS. For the same molecule, the TGI in the experiment on ACHN renal is 2.94 µM and 0.604 µM; in the experiment with HL-60(TB) leukemia, 3.02 µM and 0.541 µM; in the experiment on KM20L2 colon it was 0.722 µM; with OVCAR-8 ovarian it was 7.43 µM and 1.65 µM; with RPMI-8226 leukemia, 2.29 µM and 0.705 µM; in the experiment on SF-268 CNS it was 10.9 µM and 1.16 µM. Also, the TGI with SNB-78 CNS worked out at 1.61 µM; in the experiment on T-47D breast, 16.3 µM.
For `C=CC1(c2ccccc2Cl)N/C(=C/OCC)CO1` (stereo unspecified), the TGI in the experiment on ACHN renal, in the experiment on COLO 205 colon, in the experiment on HL-60(TB) leukemia, in the experiment with K-562 leukemia, with KM20L2 colon and in the experiment with OVCAR-8 ovarian was above 100 µM throughout. In addition, the results for the TGI in the experiment on RPMI-8226 leukemia, in the experiment on SF-268 CNS and with SNB-78 CNS were 65 µM, above 100 µM and above 100 µM, respectively.
As to `Cc1ccc(/C=N/NS(=O)(=O)c2ccccc2)cc1`, the TGI in the experiment with ACHN renal, with COLO 205 colon, in the experiment on HL-60(TB) leukemia, with K-562 leukemia, in the experiment on KM20L2 colon and in the experiment on OVCAR-8 ovarian was above 100 µM each time. The TGI in the experiment on RPMI-8226 leukemia, in the experiment on SF-268 CNS and with SNB-78 CNS was above 100 µM each time.
Turning to `S=c1nc[nH]c2nc[nH]c12`, the GI50 in the experiment on ACHN renal is 4.88 µM; in the experiment with COLO 205 colon, 18.8 µM; with HL-60(TB) leukemia, 3.11 µM and 3.31 µM; with K-562 leukemia it was 3.34 µM; with OVCAR-8 ovarian it was 3.74 µM and 35.5 µM; in the experiment with RPMI-8226 leukemia, 1.18 µM and 10.3 µM. The GI50 with SF-268 CNS was 12.3 µM; in the experiment on T-47D breast, 0.812 µM and 5.81 µM. The TGI in the experiment on ACHN renal was above 737 µM; in the experiment with COLO 205 colon, > 100 µM and 546 µM and > 750 µM; in the experiment with K-562 leukemia, 446 µM and 251 µM; in the experiment with KM20L2 colon it was 691 µM; with OVCAR-8 ovarian it was > 100 µM and 739 µM and > 532 µM; in the experiment on RPMI-8226 leukemia, > 100 µM and 489 µM and 171 µM. The concentration for total growth inhibition (TGI) in the experiment on SF-268 CNS was > 100 µM and 681 µM and > 750 µM; with SNB-78 CNS, 670 µM; in the experiment on T-47D breast, above 627 µM.
As for `CC(C)[C@](O)(C(=O)OCC1=CC[N+]2([O-])CC[C@@H](O)[C@@H]12)[C@H](C)O` (stereo partly specified), the total growth inhibition concentration (TGI) is above 10000 µM with ACHN renal; above 10000 µM in the experiment with COLO 205 colon; 9860 µM in the experiment with HL-60(TB) leukemia; above 10000 µM in the experiment with K-562 leukemia; above 10000 µM in the experiment with KM20L2 colon; above 7940 µM in the experiment with OVCAR-8 ovarian. Moreover, the TGI in the experiment on RPMI-8226 leukemia, in the experiment on SF-268 CNS, in the experiment on SNB-78 CNS and in the experiment with T-47D breast was above 10000 µM throughout.

The values are drawn from PubChem BioAssay (NCI).
